Relative viability data for six cell lines are collected here from the supplement of paper PMC10307832.

Holding throughout (test): relative viability (nuclei count vs DMSO), 5 days (fraction); higher = more cells survive
Compound in test [1]: COc1cccc2c1C(=O)c1c(O)c3c(c(O)c1C2=O)C[C@@](O)(C(=O)CO)C[C@@H]3O[C@H]1C[C@H](N)[C@H](O)[C@H](C)O1 [Doxorubicin] + CCNC(=O)c1noc(-c2cc(C(C)C)c(O)cc2O)c1-c1ccc(CN2CCOCC2)cc1 [Luminespib] (partner 0.01 µM)
The procedure, abridged:
(§1)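 Lung cancer cell lines were seeded in 1536-well plates and dosed by pin tool the next day, with either a single drug or a fixed anchor-drug dose combined with five library-drug doses (not always all listed) spaced in √10 steps. Five days later, one step fixed the cells and stained their nuclei (final 0.05% Triton X-100, 1% formaldehyde, 1 ug/ml Hoechst), and nuclei were counted on 4× images. Relative viability is the nuclei count in treated wells divided by the count in vehicle wells, and each value is the median of duplicate plates.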

Compound in test [2]: COC1=C(C=C(C=C1)C2=CC3=NC=CN3C(=N2)NC4=C(C=CC=N4)C(=O)N)OC [BAY61-3606] + COc1cccc2cc(-c3nc([C@H]4CC[C@H](C(=O)O)CC4)n4ncnc(N)c34)[nH]c12 [OSI-027] (partner 0.5 µM)
In short, it runs like this: as §1

Compound in test [3]: COc1cccc2c1C(=O)c1c(O)c3c(c(O)c1C2=O)C[C@@](O)(C(=O)CO)C[C@@H]3O[C@H]1C[C@H](N)[C@H](O)[C@H](C)O1 [Doxorubicin] + CS(=O)(=O)CCNCc1ccc(-c2ccc3ncnc(Nc4ccc(OCc5cccc(F)c5)c(Cl)c4)c3c2)o1 [Lapatinib] (partner 2 µM)
The procedure, abridged: as §1

Compound in test [4]: COc1cccc2c1C(=O)c1c(O)c3c(c(O)c1C2=O)C[C@@](O)(C(=O)CO)C[C@@H]3O[C@H]1C[C@H](N)[C@H](O)[C@H](C)O1 [Doxorubicin] + NC(=O)Nc1cc(-c2cccc(F)c2)sc1C(=O)N[C@H]1CCCNC1 [AZD7762] (partner 0.2 µM)
The procedure, abridged: as §1

On to CAL-12T, for which the relative viability in test [1] (first compound 0.001 µM) worked out at 0.523; in test [1] (first compound 0.003162 µM), 0.394; in test [1] (first compound 0.01 µM), 0.555; in test [1] (first compound 0.03162 µM), 0.289; in test [1] (first compound 0.1 µM), 0.239; in test [2] (first compound 0.02 µM), 0.674. For the same cell line, the relative viability in test [2] (first compound 0.06325 µM) was 0.593; in test [2] (first compound 0.2 µM), 0.616; in test [2] (first compound 0.6325 µM), 0.605; in test [2] (first compound 2 µM) it was 0.269; in test [3] (first compound 0.001 µM), 0.597; in test [3] (first compound 0.003162 µM) it was 0.656. Further, the relative viability worked out at 0.517 in test [3] (first compound 0.01 µM); 0.67 in test [3] (first compound 0.03162 µM); 0.404 in test [3] (first compound 0.1 µM); 0.727 in test [4] (first compound 0.001 µM); 0.673 in test [4] (first compound 0.003162 µM); 0.529 in test [4] (first compound 0.01 µM). Moreover, the relative viability in test [4] (first compound 0.03162 µM) amounted to 0.668; in test [4] (first compound 0.1 µM) it was 0.438.
With NCI-H650, the relative viability in test [1] (first compound 0.001 µM) came out at 0.694; in test [1] (first compound 0.003162 µM) it was 0.75; in test [1] (first compound 0.01 µM), 0.78; in test [1] (first compound 0.03162 µM), 0.565; in test [1] (first compound 0.1 µM) it was 0.627; in test [2] (first compound 0.02 µM) it was 0.509. Further, the relative viability is 0.532 in test [2] (first compound 0.06325 µM); 0.439 in test [2] (first compound 0.2 µM); 0.495 in test [2] (first compound 0.6325 µM); 0.513 in test [2] (first compound 2 µM); 0.925 in test [3] (first compound 0.001 µM); 0.838 in test [3] (first compound 0.003162 µM). Besides, the relative viability came to 0.837 in test [3] (first compound 0.01 µM); 0.595 in test [3] (first compound 0.03162 µM); 0.0014 in test [3] (first compound 0.1 µM); 0.949 in test [4] (first compound 0.001 µM); 0.921 in test [4] (first compound 0.003162 µM); 0.948 in test [4] (first compound 0.01 µM). For the same cell line, the figures for the relative viability in test [4] (first compound 0.03162 µM) and in test [4] (first compound 0.1 µM) were 0.89 and 0.718, respectively.
Take NCI-H2170: the relative viability in test [1] (first compound 0.001 µM) turned out to be 0.484; in test [1] (first compound 0.003162 µM) it was 0.89; in test [1] (first compound 0.01 µM) it was 0.772; in test [1] (first compound 0.03162 µM), 0.5; in test [1] (first compound 0.1 µM), 0.758; in test [2] (first compound 0.02 µM), 0.693. For the same cell line, the relative viability was 0.65 in test [2] (first compound 0.06325 µM); 0.8 in test [2] (first compound 0.2 µM); 0.776 in test [2] (first compound 0.6325 µM); 0.597 in test [2] (first compound 2 µM); 0.263 in test [3] (first compound 0.001 µM); 0.264 in test [3] (first compound 0.003162 µM). For the same cell line, the relative viability in test [3] (first compound 0.01 µM) was 0.259; in test [3] (first compound 0.03162 µM) it was 0.266; in test [3] (first compound 0.1 µM) it was 0.285; in test [4] (first compound 0.001 µM), 0.825; in test [4] (first compound 0.003162 µM), 0.95; in test [4] (first compound 0.01 µM) it was 0.792. For the same cell line, the relative viability is 0.626 in test [4] (first compound 0.03162 µM) and 0.961 in test [4] (first compound 0.1 µM).
Turning to 201T, the relative viability in test [1] (first compound 0.001 µM) amounted to 1.03; in test [1] (first compound 0.003162 µM) it was 1.08; in test [1] (first compound 0.01 µM), 1.04; in test [1] (first compound 0.03162 µM) it was 1.01; in test [1] (first compound 0.1 µM), 1.11; in test [2] (first compound 0.02 µM), 0.759. The relative viability is 0.703 in test [2] (first compound 0.2 µM); 0.661 in test [2] (first compound 0.6325 µM); 0.512 in test [2] (first compound 2 µM); 0.942 in test [3] (first compound 0.001 µM); 0.968 in test [3] (first compound 0.003162 µM); 1.04 in test [3] (first compound 0.01 µM). The relative viability in test [3] (first compound 0.03162 µM) was 1.01; in test [3] (first compound 0.1 µM) it was 1.03; in test [4] (first compound 0.001 µM), 0.626; in test [4] (first compound 0.003162 µM), 0.756; in test [4] (first compound 0.01 µM) it was 0.642; in test [4] (first compound 0.03162 µM), 0.556. The relative viability in test [4] (first compound 0.1 µM) came to 0.577.
As to NCI-H2405, the relative viability in test [1] (first compound 0.001 µM) came to 0.572; in test [1] (first compound 0.003162 µM), 0.701; in test [1] (first compound 0.01 µM) it was 0.778; in test [1] (first compound 0.03162 µM) it was 0.599; in test [1] (first compound 0.1 µM) it was 0.6; in test [2] (first compound 0.02 µM) it was 0.676. Further, the relative viability stood at 0.63 in test [2] (first compound 0.06325 µM); 0.64 in test [2] (first compound 0.2 µM); 0.756 in test [2] (first compound 0.6325 µM); 0.65 in test [2] (first compound 2 µM); 1.07 in test [3] (first compound 0.003162 µM); 1.05 in test [3] (first compound 0.01 µM). Further, the relative viability in test [3] (first compound 0.03162 µM) was 0.639; in test [3] (first compound 0.1 µM), 0.301; in test [4] (first compound 0.001 µM), 0.785; in test [4] (first compound 0.003162 µM), 0.802; in test [4] (first compound 0.01 µM), 0.801; in test [4] (first compound 0.03162 µM) it was 0.682. Also, the relative viability in test [4] (first compound 0.1 µM) worked out at 0.381.
In the case of LU99A, the relative viability in test [1] (first compound 0.001 µM) worked out at 0.226; in test [1] (first compound 0.003162 µM) it was 0.228; in test [1] (first compound 0.01 µM), 0.268; in test [1] (first compound 0.03162 µM), 0.235; in test [1] (first compound 0.1 µM) it was 0.258; in test [2] (first compound 0.02 µM) it was 0.315. In addition, the relative viability was found to be 0.271 in test [2] (first compound 0.06325 µM); 0.298 in test [2] (first compound 0.2 µM); 0.26 in test [2] (first compound 0.6325 µM); 0.306 in test [2] (first compound 2 µM); 1.01 in test [3] (first compound 0.001 µM); 1.16 in test [3] (first compound 0.003162 µM). For the same cell line, the relative viability in test [3] (first compound 0.01 µM) came to 0.954; in test [3] (first compound 0.03162 µM) it was 0.583; in test [3] (first compound 0.1 µM) it was 0.788; in test [4] (first compound 0.001 µM), 0.353; in test [4] (first compound 0.003162 µM), 0.394; in test [4] (first compound 0.01 µM), 0.429. Also, the relative viability came out at 0.317 in test [4] (first compound 0.03162 µM) and 0.324 in test [4] (first compound 0.1 µM).
